The values that follow come from patent US10702504B2, “Degradation of tripartite motif-containing protein 24 (TRIM24) by conjugation of TRIM24 inhibitors with E3 ligase ligand and methods of use” (Dana-Farber Cancer Institute, Inc., priority 2016, dated 2020).

The structures appear in SMILES notation.

The target in this assay is PHD-bromodomain of TRIM24 (Homo sapiens (Human), UniProt O15164). Description: TRIM24 binding alpha assay. The conditions noted are these: Alpha Assay binding to TRIM24; compounds 50 μM to 0.002 μM. How it is done: The alpha TRIM24 binding assay is used to assess the binding of the compounds of the application. Compounds are added at various concentrations as well as a vehicle control. Compounds that bind to TRIM24 compete away the interaction between the PHD-bromodomain of TRIM24 bound to the donor bead, and the H3K23ac histone peptide bound to the acceptor bead, which causes a decrease in signal. IC50 values are calculated.
PHD-bromodomain of TRIM24, sequence (O15164 824-1006): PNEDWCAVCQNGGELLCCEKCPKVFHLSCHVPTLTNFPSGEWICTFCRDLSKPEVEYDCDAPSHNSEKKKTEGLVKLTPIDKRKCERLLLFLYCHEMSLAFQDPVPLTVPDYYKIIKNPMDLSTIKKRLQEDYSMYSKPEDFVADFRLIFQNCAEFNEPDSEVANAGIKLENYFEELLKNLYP
The alpha assay was used to assess the binding of the compounds of the application to TRIM24 at various concentrations. All compounds were added at concentrations from 50 μM to 0.002 μM. Compounds that bind to TRIM24 compete with the PHD-bromodomain of TRIM24 in interacting with the donor bead, and the H3K23ac histone peptide bound to the acceptor bead, which causes a decrease in signal. IC50 values were calculated by using Graphpad PRISM's log(inhibitor) vs. response—variable slope (four parameters).
In the case of `COc1ccc(Oc2cc3c(cc2NS(=O)(=O)c2ccc(OC)c(OC)c2)n(C)c(=O)n3C)cc1` [Cmpd A, reference compound], the IC50 is above 500 nM.
As for `COc1ccc(S(=O)(=O)Nc2cc3c(cc2Oc2cccc(OCc4ccccc4)c2)n(C)c(=O)n3C)cc1OC` [Cmpd B, reference compound], the figure is 50 to 100 nM; as for `Cc1nc(S(=O)(=O)Nc2cc3c(cc2Oc2cccc(OCC(C)C)c2)n(C)c(=O)n3C)cn1C` [Cmpd C, reference compound], below 50 nM.
As for `CCCOc1cccc(Oc2cc3c(cc2NS(=O)(=O)c2ccc(OC)c(OC)c2)n(C)c(=O)n3C)c1` [Cmpd D, reference compound], the figure is below 50 nM; as for `CCCOc1cccc(Oc2cc3c(cc2NS(=O)(=O)c2cccc(C(=O)NCCCCNC(=O)CC45CC6CC(CC(C6)C4)C5)c2)n(C)c(=O)n3C)c1` [Cmpd E, reference compound], 100 to 500 nM.
As for `COc1ccc(S(=O)(=O)Nc2cc3c(cc2Oc2ccc(OCC(=O)NCCCCNC(=O)COc4cccc5c4C(=O)N(C4CCC(=O)NC4=O)C5=O)cc2)n(C)c(=O)n3C)cc1OC` (stereo not shown) [I-A1, 2-(4-((6-((3,4-dimethoxyphenyl)sulfonamido)-1,3-dimethyl-2-oxo-2,3-dihydro-1H-benzo[d]imidazol-5-yl)oxy)phenoxy)-N-(4-(2-((2-(2,6-dioxopiperidin-3-yl)-1,3-dioxoisoindolin-4-yl)oxy)acetamido)butyl)acetamide], the figure is above 500 nM; as for `COc1ccc(S(=O)(=O)Nc2cc3c(cc2Oc2ccc(OCC(=O)NCCCCCCCCNC(=O)COc4cccc5c4C(=O)N(C4CCC(=O)NC4=O)C5=O)cc2)n(C)c(=O)n3C)cc1OC` (stereo not shown) [I-A2, 2-(4-((6-((3,4-dimethoxyphenyl)sulfonamido)-1,3-dimethyl-2-oxo-2,3-dihydro-1H-benzo[d]imidazol-5-yl)oxy)phenoxy)-N-(8-(2-((2-(2,6-dioxopiperidin-3-yl)-1,3-dioxoisoindolin-4-yl)oxy)acetamido)octyl)acetamide], above 500 nM.
Consider `COc1ccc(S(=O)(=O)Nc2cc3c(cc2Oc2ccc(OCC(=O)NCCCOCCOCCOCCCNC(=O)COc4cccc5c4C(=O)N(C4CCC(=O)NC4=O)C5=O)cc2)n(C)c(=O)n3C)cc1OC` (stereo not shown) [I-A3, 2-(4-((6-((3,4-dimethoxyphenyl)sulfonamido)-1,3-dimethyl-2-oxo-2,3-dihydro-1H-benzo[d]imidazol-5-yl)oxy)phenoxy)-N-(1-((2-(2,6-dioxopiperidin-3-yl)-1,3-dioxoisoindolin-4-yl)oxy)-2-oxo-7,10,13-trioxa-3-azahexadecan-16-yl)acetamide], for which the concentration for half-maximal inhibition (IC50) was above 500 nM.
As to `CCCOc1cccc(Oc2cc3c(cc2NS(=O)(=O)c2cccc(C(=O)NCCCCNC(=O)COc4cccc5c4C(=O)N(C4CCC(=O)NC4=O)C5=O)c2)n(C)c(=O)n3C)c1` (stereo not shown) [I-A4, 3-(N-(1,3-dimethyl-2-oxo-6-(3-propoxyphenoxy)-2,3-dihydro-1H-benzo[d]imidazol-5-yl)sulfamoyl)-N-(4-(2-((2-(2,6-dioxopiperidin-3-yl)-1,3-dioxoisoindolin-4-yl)oxy)acetamido)butyl)benzamide], the half-inhibitory concentration (IC50) was 50 to 100 nM.
As for `CCCOc1cccc(Oc2cc3c(cc2NS(=O)(=O)c2cccc(C(=O)NCCCCCCCCNC(=O)COc4cccc5c4C(=O)N(C4CCC(=O)NC4=O)C5=O)c2)n(C)c(=O)n3C)c1` (stereo not shown) [I-A5, 3-(N-(1,3-dimethyl-2-oxo-6-(3-propoxyphenoxy)-2,3-dihydro-1H-benzo[d]imidazol-5-yl)sulfamoyl)-N-(8-(2-((2-(2,6-dioxopiperidin-3-yl)-1,3-dioxoisoindolin-4-yl)oxy)acetamido)octyl)benzamide], the figure is 100 to 500 nM; as for `CCCOc1cccc(Oc2cc3c(cc2NS(=O)(=O)c2cccc(C(=O)NCCCOCCOCCOCCCNC(=O)COc4cccc5c4C(=O)N(C4CCC(=O)NC4=O)C5=O)c2)n(C)c(=O)n3C)c1` (stereo not shown) [I-A6, 3-(N-(1,3-dimethyl-2-oxo-6-(3-propoxyphenoxy)-2,3-dihydro-1H-benzo[d]imidazol-5-yl)sulfamoyl)-N-(1-((2-(2,6-dioxopiperidin-3-yl)-1,3-dioxoisoindolin-4-yl)oxy)-2-oxo-7,10,13-trioxa-3-azahexadecan-16-yl)benzamide], below 50 nM.
With `Cc1nc(S(=O)(=O)Nc2cc3c(cc2Oc2cccc(OCC(=O)NCCCCNC(=O)COc4cccc5c4C(=O)N(C4CCC(=O)NC4=O)C5=O)c2)n(C)c(=O)n3C)cn1C` (stereo not shown) [I-A7, 2-(3-((6-((1,2-dimethyl-1H-imidazole)-4-sulfonamido)-1,3-dimethyl-2-oxo-2,3-dihydro-1H-benzo[d]imidazol-5-yl)oxy)phenoxy)-N-(4-(2-((2-(2,6-dioxopiperidin-3-yl)-1,3-dioxoisoindolin-4-yl)oxy)acetamido)butyl)acetamide] the figure was above 500 nM.
As to `Cc1nc(S(=O)(=O)Nc2cc3c(cc2Oc2cccc(OCC(=O)NCCCCCCCCNC(=O)COc4cccc5c4C(=O)N(C4CCC(=O)NC4=O)C5=O)c2)n(C)c(=O)n3C)cn1C` (stereo not shown) [I-A8, 2-(3-((6-((1,2-dimethyl-1H-imidazole)-4-sulfonamido)-1,3-dimethyl-2-oxo-2,3-dihydro-1H-benzo[d]imidazol-5-yl)oxy)phenoxy)-N-(8-(2-((2-(2,6-dioxopiperidin-3-yl)-1,3-dioxoisoindolin-4-yl)oxy)acetamido)octyl)acetamide], the IC50 was above 500 nM.
As for `Cc1nc(S(=O)(=O)Nc2cc3c(cc2Oc2cccc(OCC(=O)NCCCOCCOCCOCCCNC(=O)COc4cccc5c4C(=O)N(C4CCC(=O)NC4=O)C5=O)c2)n(C)c(=O)n3C)cn1C` (stereo not shown) [I-A9, 2-(3-((6-((1,2-dimethyl-1H-imidazole)-4-sulfonamido)-1,3-dimethyl-2-oxo-2,3-dihydro-1H-benzo[d]imidazol-5-yl)oxy)phenoxy)-N-(1-((2-(2,6-dioxopiperidin-3-yl)-1,3-dioxoisoindolin-4-yl)oxy)-2-oxo-7,10,13-trioxa-3-azahexadecan-16-yl)acetamide], the IC50 is above 500 nM.
The compound `CCCOc1cc(OCCCCN(C)C)cc(Oc2cc3c(cc2NS(=O)(=O)c2cccc(C(=O)NCCCCNC(=O)COc4cccc5c4C(=O)N(C4CCC(=O)NC4=O)C5=O)c2)n(C)c(=O)n3C)c1` (stereo not shown) [I-A10, 3-(N-(6-(3-(4-(dimethylamino)butoxy)-5-propoxyphenoxy)-1,3-dimethyl-2-oxo-2,3-dihydro-1H-benzo[d]imidazol-5-yl)sulfamoyl)-N-(4-(2-((2-(2,6-dioxopiperidin-3-yl)-1,3-dioxoisoindolin-4-yl)oxy)acetamido)butyl)benzamide] returned an IC50 below 50 nM.
`CCCOc1cc(OCCCCN(C)C)cc(Oc2cc3c(cc2NS(=O)(=O)c2cccc(C(=O)NCCCCCCCCNC(=O)COc4cccc5c4C(=O)N(C4CCC(=O)NC4=O)C5=O)c2)n(C)c(=O)n3C)c1` (stereo not shown) [I-A11, 3-(N-(6-(3-(4-(dimethylamino)butoxy)-5-propoxyphenoxy)-1,3-dimethyl-2-oxo-2,3-dihydro-1H-benzo[d]imidazol-5-yl)sulfamoyl)-N-(8-(1-((2-(2,6-dioxopiperidin-3-yl)-1,3-dioxoisoindolin-4-yl)oxy)acetamido)octyl)benzamide] showed a 50% inhibitory concentration (IC50) below 50 nM.
